Assay results published in article PMC10535199, “A Combined Experimental and Computational Study of Novel Benzotriazinone Carboxamides as Alpha-Glucosidase Inhibitors” (Molecules, 2023).

Tests used:
Alpha-glucosidase = biological target: T1, Alpha-glucosidase (Saccharomyces cerevisiae, UniProt P53341); test: biochemical; details: for inhibition at 500 µM: pH 6.8, read-out: Inhibition (%) at 0.5 mM; for IC50: pH 6.8, 30 min incubation
T1 construct: purchased 5003-1KU Type I
Protocol: The alpha-glucosidase inhibitory assay was performed by adopting the method of Pierre et al., with minor modifications. Alpha-glucosidase (Cat No. 5003-1KU Type I) belonging to Saccharomyces cerevisiae was selected for this protocol because its structure and function were similar to yeast and mammalian enzymes. In test tubes, 10 μL of test compound (0.5 mM), 70 μL of saline phosphate buffer (50 mM) to adjust pH at 6.8, and 10 μL of α-glucosidase enzyme (0.0234 units) were added to prepare […] assay mixture. A quantity of 10 μL p-nitrophenyl-α-D-glucopyranoside (0.5 mM, N1377 from Sigma, Burlington, MA, USA) was added to initiate the reaction and tubes were incubated for 30 min. […] Free substrate change in absorbance was monitored at 400 nm. The alpha-glucosidase inhibitory activity was calculated as percentage inhibition by using formula:% Inhibition = [(Abs. of control − Abs. of test)/Abs. of control] × 100
IC50 values were determined using EZ-Fit enzyme kinetics software version 5.03 (Perrella Scientific Inc. Amherst, Amherst, MA, USA).

T1 sequence (P53341 whole entry): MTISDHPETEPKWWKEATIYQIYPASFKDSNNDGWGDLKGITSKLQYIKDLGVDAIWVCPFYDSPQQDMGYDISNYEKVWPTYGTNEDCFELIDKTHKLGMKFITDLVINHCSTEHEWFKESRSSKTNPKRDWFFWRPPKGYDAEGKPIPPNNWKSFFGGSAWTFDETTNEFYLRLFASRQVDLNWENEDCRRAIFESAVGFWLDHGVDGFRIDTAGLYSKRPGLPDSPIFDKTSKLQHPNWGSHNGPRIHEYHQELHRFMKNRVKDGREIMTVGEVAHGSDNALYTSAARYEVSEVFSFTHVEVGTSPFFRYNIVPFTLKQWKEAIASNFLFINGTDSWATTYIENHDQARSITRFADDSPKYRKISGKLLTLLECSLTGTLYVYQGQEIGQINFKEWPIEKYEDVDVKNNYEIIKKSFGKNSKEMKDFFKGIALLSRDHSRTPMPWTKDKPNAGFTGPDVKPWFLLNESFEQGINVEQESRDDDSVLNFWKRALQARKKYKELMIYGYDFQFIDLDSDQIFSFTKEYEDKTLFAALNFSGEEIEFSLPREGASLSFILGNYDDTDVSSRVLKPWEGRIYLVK

Compound | inhibition at 500 µM (Alpha-glucosidase) | melting point | IC50 (Alpha-glucosidase)
CCCNC(=O)CCCn1nnc2ccccc2c1=O [14a, N-propyl-4-(4-Oxobenzo[1,2,3]triazin-3(4H)-yl)butanamide] | 39.13 ± 0.19% | 127 to 128 °C | –
CCCCNC(=O)CCCn1nnc2ccccc2c1=O [14b, N-Butyl-4-(4-oxobenzo[1,2,3]triazin-3(4H)-yl)butanamide] | 67.53 ± 0.14% | 123 to 124 °C | 243.41 ± 0.18 µM
CCCCCNC(=O)CCCn1nnc2ccccc2c1=O [14c, N-pentyl-4-(4-Oxobenzo[1,2,3]triazin-3(4H)-yl)butanamide] | 42.34 ± 0.25% | 106 to 107 °C | –
CCCCCCNC(=O)CCCn1nnc2ccccc2c1=O [14d, N-Hexyl-4-(4-oxobenzo[1,2,3]triazin-3(4H)-yl)butanamide] | 66.2 ± 0.11% | 102 to 103 °C | 335.04 ± 0.07 µM
CCCCCCCNC(=O)CCCn1nnc2ccccc2c1=O [14e, N-Heptyl-4-(4-oxobenzo[1,2,3]triazin-3(4H)-yl)butanamide] | 40.23 ± 0.21% | 100 to 101 °C | –
CCCCCCCCNC(=O)CCCn1nnc2ccccc2c1=O [14f, N-Octyl-4-(4-oxobenzo[1,2,3]triazin-3(4H)-yl)butanamide] | 30.57 ± 0.16% | 95 to 96 °C | –
Cc1cc(C)cc(NC(=O)CCCn2nnc3ccccc3c2=O)c1 [14g, N-(3,5-Dimethylphenyl)-4-(4-oxobenzo[1,2,3]triazin-3(4H)-yl)butanamide] | 78.32 ± 0.18% | 110 to 111 °C | 196.52 ± 0.08 µM
O=C(CCCn1nnc2ccccc2c1=O)Nc1ccc(Br)cc1 [14h, N-(4-Bromophenyl)-4-(4-oxobenzo[1,2,3]triazin-3(4H)-yl)butanamide] | 74.25 ± 0.27% | 115 to 116 °C | 238.15 ± 0.15 µM
O=C(CCCn1nnc2ccccc2c1=O)Nc1ccc(Cl)cc1 [14i, N-(4-Chlorophenyl)-4-(4-oxobenzo[1,2,3]triazin-3(4H)-yl)butanamide] | 82.77 ± 0.2% | 144 to 145 °C | 163.29 ± 0.13 µM
O=C(CCCn1nnc2ccccc2c1=O)Nc1cccc(Cl)c1 [14j, N-(3-Chlorophenyl)-4-(4-oxobenzo[1,2,3]triazin-3(4H)-yl)butanamide] | 89.35 ± 0.21% | 209 to 210 °C | 52.01 ± 0.07 µM
Cc1ccc(NC(=O)CCCn2nnc3ccccc3c2=O)cc1 [14k, N-(4-methylphenyl)-4-(4-Oxobenzo[1,2,3]triazin-3(4H)-yl)butanamide] | 94.18 ± 0.23% | 175 to 176 °C | 27.13 ± 0.12 µM
Cc1cccc(NC(=O)CCCn2nnc3ccccc3c2=O)c1 [14l, N-(3-methylphenyl)-4-(4-Oxobenzo[1,2,3]triazin-3(4H)-yl)butanamide] | 92.63 ± 0.12% | 105 to 106 °C | 32.14 ± 0.11 µM
COc1ccccc1NC(=O)CCCn1nnc2ccccc2c1=O [14m, N-(2-Methoxyphenyl)-4-(4-oxobenzo[1,2,3]triazin-3(4H)-yl)butanamide] | 84.31 ± 0.18% | 139 to 140 °C | 121.3 ± 0.15 µM
COc1ccc(NC(=O)CCCn2nnc3ccccc3c2=O)cc1 [14n, N-(4-Methoxyphenyl)-4-(4-oxobenzo[1,2,3]triazin-3(4H)-yl)butanamide] | 87.46 ± 0.15% | 147 to 148 °C | 75.37 ± 0.14 µM
